Values of other authors as cited in patent US20080003219A1, “DELIVERY OF AN OCULAR AGENT” (MINU, L.L.C., priority 2005, published 2008).

Columns and labels:
[1] = system: chronic myeloid leukemia (CML); conditions: CML patients who initially respond
[2] = system: neovascular age-related macular degeneration; conditions: 1 mg single intravitreal injection
[3] = system: choroidal neovascularization; conditions: intravitreal injection in combination with verteporfin PDT, compared with PDT only

Cc1ccc(NC(=O)c2ccc(CN3CCN(C)CC3)cc2)cc1Nc1nccc(-c2cccnc2)n1 [imatinib]
initially responding CML patients who subsequently develop drug resistance [1]: about 10%

bevacizumab
observed inflammation [2]: no observed inflammation | subretinal fluid ([2]; after one week): resolution of subretinal fluid after one week | macular appearance ([2]; duration of improvement): improved macular appearance maintained for at least four weeks

B1: ranibizumab (antibody, chains of the INN, looked up, V domains shown)
VH: EVQLVESGGGLVQPGGSLRLSCAASGYDFTHYGMNWVRQAPGKGLEWVGWINTYTGEPTYAADFKRRFTFSLDTSKSTAYLQMNSLRAEDTAVYYCAKYPYYYGTSHWYFDVWGQGTLVTVSS
VL: DIQLTQSPSSLSASVGDRVTITCSASQDISNYLNWYQQKPGKAPKVLIYFTSSLHSGVPSRFSGSGSGTDFTLTISSLQPEDFATYYCQQYSTVPWTFGQGTKVEIK
modifications: Fab
reduction in angiographic leakage [3]: greater reduction in angiographic leakage than PDT only
